Target: human LPAR1 (Homo sapiens (Human), UniProt Q92633)
Test: LPAR1 intracellular calcium mobilization assay (antagonist mode, FLIPR)
Assay type: cell-based
Conditions: CHO-K1 EDG2 cells expressing human LPAR1, LPA 18:2 at EC80 (100 nM), test compound 0.5 nM to 10 μM

Chain of human LPAR1 (Q92633 whole entry): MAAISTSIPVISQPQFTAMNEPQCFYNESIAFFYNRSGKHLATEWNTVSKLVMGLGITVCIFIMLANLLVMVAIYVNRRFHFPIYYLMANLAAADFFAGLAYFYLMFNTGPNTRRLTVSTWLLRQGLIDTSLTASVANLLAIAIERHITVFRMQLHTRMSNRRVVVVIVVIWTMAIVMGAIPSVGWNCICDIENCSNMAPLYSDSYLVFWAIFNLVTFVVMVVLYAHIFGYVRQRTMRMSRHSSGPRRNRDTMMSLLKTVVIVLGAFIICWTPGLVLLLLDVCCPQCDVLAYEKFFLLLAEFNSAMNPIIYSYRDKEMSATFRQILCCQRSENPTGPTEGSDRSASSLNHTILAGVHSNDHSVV

| SMILES | EC50 |
| --- | --- |
| C[C@@H](OC(=O)Nc1c(-c2ccc(NC(=O)c3cnc(C4CC4)o3)cn2)nnn1C)c1cc(F)cnc1F [Compound 280, (R)-1-(2,5-difluoropyridin-3-yl)ethyl (4-(5-(2-cyclopropyloxazole-5-carboxamido)pyridin-2-yl)-1-methyl-1H-1,2,3-triazol-5-yl)carbamate] | 98.7 nM |
| COc1cc(C(=O)Nc2ccc(-c3nnn(C)c3NC(=O)O[C@H](C)c3cc(F)cnc3F)nc2)on1 [Compound 281, (R)-1-(2,5-difluoropyridin-3-yl)ethyl (4-(5-(3-methoxyisoxazole-5-carboxamido)pyridin-2-yl)-1-methyl-1H-1,2,3-triazol-5-yl)carbamate] | 86.6 nM |
| C[C@@H](OC(=O)Nc1c(-c2ccc(NC(=O)c3cnc(N(C)C)nc3)cn2)nnn1C)c1cc(F)cnc1F [Compound 282, (R)-1-(2,5-difluoropyridin-3-yl)ethyl (4-(5-(2-(dimethylamino)pyrimidine-5-carboxamido)pyridin-2-yl)-1-methyl-1H-1,2,3-triazol-5-yl)carbamate] | 1190 nM |
| C[C@@H](OC(=O)Nc1c(-c2ccc(NC(=O)c3cnc(C4CC4)nc3)cn2)nnn1C)c1cc(F)cnc1F [Compound 283, (R)-1-(2,5-difluoropyridin-3-yl)ethyl (4-(5-(2-cyclopropylpyrimidine-5-carboxamido)pyridin-2-yl)-1-methyl-1H-1,2,3-triazol-5-yl)carbamate] | 82.4 nM |
| C[C@@H](OC(=O)Nc1c(-c2ccc(NC(=O)c3cnc(N4CCOCC4)nc3)cn2)nnn1C)c1cc(F)cnc1F [Compound 284, (R)-1-(2,5-difluoropyridin-3-yl)ethyl (1-methyl-4-(5-(2-morpholinopyrimidine-5-carboxamido)pyridin-2-yl)-1H-1,2,3-triazol-5-yl)carbamate] | 908 nM |
| C[C@@H](OC(=O)Nc1c(-c2ncc(NC(=O)[C@]3(C#N)C[C@H]3C(F)F)cn2)nnn1C)c1cc(F)cnc1Cl [Compound 286, (R)-1-(2-chloro-5-fluoropyridin-3-yl)ethyl (4-(5-((1R,2R)-1-cyano-2-(difluoromethyl)cyclopropane-1-carboxamido)pyrimidin-2-yl)-1-methyl-1H-1,2,3-triazol-5-yl)carbamate] | 104 nM |
| C[C@@H](OC(=O)Nc1c(-c2ncc(NC(=O)[C@@]3(C#N)C[C@@H]3C(F)F)cn2)nnn1C)c1cc(F)cnc1Cl [Compound 287, (R)-1-(2-chloro-5-fluoropyridin-3-yl)ethyl (4-(5-((1S,2S)-1-cyano-2-(difluoromethyl)cyclopropane-1-carboxamido)pyrimidin-2-yl)-1-methyl-1H-1,2,3-triazol-5-yl)carbamate] | 1430 nM |
| C[C@@H](OC(=O)Nc1c(-c2ccc(NC(=O)c3ccc(C(F)(F)F)nc3)cn2)nnn1C)c1cc(F)cnc1Cl [Compound 288, (R)-1-(2-chloro-5-fluoropyridin-3-yl)ethyl (1-methyl-4-(5-(6-(trifluoromethyl)nicotinamido)pyridin-2-yl)-1H-1,2,3-triazol-5-yl)carbamate] | 33.5 nM |
| C[C@@H](OC(=O)Nc1c(-c2ccc(NC(=O)c3cnc(C(F)F)nc3)cn2)nnn1C)c1cc(F)cnc1Cl [Compound 289, (R)-1-(2-chloro-5-fluoropyridin-3-yl)ethyl (4-(5-(2-(difluoromethyl)pyrimidine-5-carboxamido)pyridin-2-yl)-1-methyl-1H-1,2,3-triazol-5-yl)carbamate] | 21.5 nM |
| C[C@@H](OC(=O)Nc1c(-c2ccc(NC(=O)c3cnc(C(F)(F)F)nc3)cn2)nnn1C)c1cc(F)cnc1Cl [Compound 290, (R)-1-(2-chloro-5-fluoropyridin-3-yl)ethyl (1-methyl-4-(5-(2-(trifluoromethyl)pyrimidine-5-carboxamido)pyridin-2-yl)-1H-1,2,3-triazol-5-yl)carbamate] | 10.9 nM |
| C[C@@H](OC(=O)Nc1c(-c2ccc(NC(=O)C3(C)CC(F)(F)C3)cn2)nnn1C)c1cccnc1F [Compound 291, (R)-1-(2-fluoropyridin-3-yl)ethyl (4-(5-(3,3-difluoro-1-methylcyclobutane-1-carboxamido)pyridin-2-yl)-1-methyl-1H-1,2,3-triazol-5-yl)carbamate] | 157 nM |
| C[C@@H](OC(=O)Nc1c(-c2ccc(NC(=O)c3ccc(Cl)nc3)cn2)nnn1C)c1cccnc1F [Compound 292, (R)-1-(2-fluoropyridin-3-yl)ethyl (4-(5-(6-chloronicotinamido)pyridin-2-yl)-1-methyl-1H-1,2,3-triazol-5-yl)carbamate] | 143 nM |
| C[C@@H](OC(=O)Nc1c(-c2ccc(NC(=O)c3ccnc(F)c3F)cn2)nnn1C)c1cccnc1F [Compound 294, (R)-1-(2-fluoropyridin-3-yl)ethyl (4-(5-(2,3-difluoroisonicotinamido)pyridin-2-yl)-1-methyl-1H-1,2,3-triazol-5-yl)carbamate] | 238 nM |
| C[C@@H](OC(=O)Nc1c(-c2ccc(NC(=O)c3ccc(C(F)F)nc3)cn2)nnn1C)c1cccnc1F [Compound 295, (R)-1-(2-fluoropyridin-3-yl)ethyl (4-(5-(6-(difluoromethyl)nicotinamido)pyridin-2-yl)-1-methyl-1H-1,2,3-triazol-5-yl)carbamate] | 391 nM |
| C[C@@H](OC(=O)Nc1c(-c2ccc(NC(=O)c3ccc(C(F)(F)F)nc3)cn2)nnn1C)c1cccnc1F [Compound 296, (R)-1-(2-fluoropyridin-3-yl)ethyl (1-methyl-4-(5-(6-(trifluoromethyl)nicotinamido)pyridin-2-yl)-1H-1,2,3-triazol-5-yl)carbamate] | 46.9 nM |
| C[C@@H](OC(=O)Nc1c(-c2ccc(NC(=O)C3(C#N)CNC3)cn2)nnn1C)c1cc(F)cnc1F [Compound 297, (R)-1-(2,5-difluoropyridin-3-yl)ethyl (4-(5-(3-cyanoazetidine-3-carboxamido)pyridin-2-yl)-1-methyl-1H-1,2,3-triazol-5-yl)carbamate] | 354 nM |
| C[C@@H](OC(=O)Nc1c(-c2ccc(NC(=O)C3(C(F)F)CNC3)cn2)nnn1C)c1cc(F)cnc1F [Compound 298, (R)-1-(2,5-difluoropyridin-3-yl)ethyl (4-(5-(3-(difluoromethyl)azetidine-3-carboxamido)pyridin-2-yl)-1-methyl-1H-1,2,3-triazol-5-yl)carbamate] | 1250 nM |
| C[C@@H](OC(=O)Nc1c(-c2ccc(NC(=O)C3(C#N)CCNCC3)cn2)nnn1C)c1cc(F)cnc1F [Compound 299, (R)-1-(2,5-difluoropyridin-3-yl)ethyl (4-(5-(4-cyanopiperidine-4-carboxamido)pyridin-2-yl)-1-methyl-1H-1,2,3-triazol-5-yl)carbamate] | 4990 nM |
| C[C@@H](OC(=O)Nc1c(-c2ccc(NC(=O)C3(CN)CC3(F)F)cn2)nnn1C)c1cc(F)cnc1F (stereo partly drawn) [Compound 300, (R)-1-(2,5-difluoropyridin-3-yl)ethyl (4-(5-(1-(aminomethyl)-2,2-difluorocyclopropane-1-carboxamido)pyridin-2-yl)-1-methyl-1H-1,2,3-triazol-5-yl)carbamate] | 961 nM |
| C[C@@H](OC(=O)Nc1c(-c2ccc(NC(=O)C3(CN)CC(F)(F)C3)cn2)nnn1C)c1cc(F)cnc1F [Compound 301, (R)-1-(2,5-difluoropyridin-3-yl)ethyl (4-(5-(1-(aminomethyl)-3,3-difluorocyclobutane-1-carboxamido)pyridin-2-yl)-1-methyl-1H-1,2,3-triazol-5-yl)carbamate] | 66.9 nM |
| C[C@@H](OC(=O)Nc1c(-c2ccc(NC(=O)C3(C#N)CCNC3)cn2)nnn1C)c1cc(F)cnc1F (stereo partly drawn) [Compound 302, (R)-1-(2,5-difluoropyridin-3-yl)ethyl (4-(5-(3-cyanopyrrolidine-3-carboxamido)pyridin-2-yl)-1-methyl-1H-1,2,3-triazol-5-yl)carbamate] | 669 nM |
| C[C@@H](OC(=O)Nc1c(-c2ccc(NC(=O)C3(CN)CCC3)cn2)nnn1C)c1cc(F)cnc1F [Compound 303, (R)-1-(2,5-difluoropyridin-3-yl)ethyl (4-(5-(1-(aminomethyl)cyclobutane-1-carboxamido)pyridin-2-yl)-1-methyl-1H-1,2,3-triazol-5-yl)carbamate] | 565 nM |
| C[C@@H](OC(=O)Nc1c(-c2ccc(NC(=O)C3(CN)CC(F)(F)C3)cn2)nnn1C)c1cc(F)cnc1Cl [Compound 304, (R)-1-(2-chloro-5-fluoropyridin-3-yl)ethyl (4-(5-(1-(aminomethyl)-3,3-difluorocyclobutane-1-carboxamido)pyridin-2-yl)-1-methyl-1H-1,2,3-triazol-5-yl)carbamate] | 46.4 nM |
| C[C@@H](OC(=O)Nc1c(-c2ccc(NC(=O)C3(C#N)CN(CC(F)(F)F)C3)cn2)nnn1C)c1cc(F)cnc1F [Compound 305, (R)-1-(2,5-difluoropyridin-3-yl)ethyl (4-(5-(3-cyano-1-(2,2,2-trifluoroethyl)azetidine-3-carboxamido)pyridin-2-yl)-1-methyl-1H-1,2,3-triazol-5-yl)carbamate] | 1000 nM |
| C[C@@H](OC(=O)Nc1c(-c2ccc(NC(=O)[C@H]3C[C@H](NCC(F)(F)F)C3)cn2)nnn1C)c1cccnc1Cl [Compound 306, (R)-1-(2-chloropyridin-3-yl)ethyl (1-methyl-4-(5-((1r,3R)-3-((2,2,2-trifluoroethyl)amino)cyclobutane-1-carboxamido)pyridin-2-yl)-1H-1,2,3-triazol-5-yl)carbamate] | 99.7 nM |
| C[C@@H](OC(=O)Nc1c(-c2ccc(NC(=O)[C@H]3[C@@H]4CN(CC(F)(F)F)C[C@@H]43)cn2)nnn1C)c1cccnc1Cl [Compound 308, (R)-1-(2-chloropyridin-3-yl)ethyl (1-methyl-4-(5-((1R,5S,6r)-3-(2,2,2-trifluoroethyl)-3-azabicyclo[3.1.0]hexane-6-carboxamido)pyridin-2-yl)-1H-1,2,3-triazol-5-yl)carbamate] | 337 nM |
| C[C@@H](OC(=O)Nc1c(-c2ccc(NC(=O)C3CN(CC(F)(F)F)C3)cn2)nnn1C)c1cccnc1Cl [Compound 309, (R)-1-(2-chloropyridin-3-yl)ethyl (1-methyl-4-(5-(1-(2,2,2-trifluoroethyl)azetidine-3-carboxamido)pyridin-2-yl)-1H-1,2,3-triazol-5-yl)carbamate] | 133 nM |

Reference: patent US11912686B2 (Gilead Sciences, Inc., priority 2020, dated 2024)
